Results on eleven compounds are retold here after patent publication US20030036111A1, “Mitochondrial protein” (priority 2001, published 2003).

Assay type in all cases: biochemical
Experiment [1] concerns the target T1, human DNC (mitochondrial deoxynucleotide carrier) (Homo sapiens, UniProt Q9HC21).
T1 construct: Amino acids are numbered from 1-320; made in house; host or cells: E. coli BL21(DE3), pET21b; inclusion bodies solubilized in sarkosyl, Ni-NTA purified
T1 sequence (Q9HC21 2-320 limits assumed): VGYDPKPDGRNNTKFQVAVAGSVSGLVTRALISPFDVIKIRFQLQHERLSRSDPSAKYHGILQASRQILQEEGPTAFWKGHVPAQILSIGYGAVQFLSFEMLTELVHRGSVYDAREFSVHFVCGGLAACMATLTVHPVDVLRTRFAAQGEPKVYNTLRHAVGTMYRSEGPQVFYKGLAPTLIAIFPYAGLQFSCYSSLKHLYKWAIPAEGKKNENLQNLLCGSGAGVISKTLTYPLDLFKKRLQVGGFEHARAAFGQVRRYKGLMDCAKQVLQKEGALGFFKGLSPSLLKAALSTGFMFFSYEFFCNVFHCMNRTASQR
Put plainly: Kinetics of [α-35S]dATP/ADP exchange in proteoliposomes reconstituted with recombinant DNC. The following applies: for Km: external substrate, internal ADP or dADP 10 mM, read-out: transport affinity (Km). On the procedure:
(§1) FIG. 3. Time course of dATP/ADP exchange and substrate specificity of human DNC. (a) Time course of [α-35 S]dATP/ADP exchange in proteoliposomes reconstituted with the recombinant DNC. [α-35 S]dATP (1 mM) was added to proteoliposomes containing 10 mM ADP (⋄) or 10 mM NaCl (∇). (b) Dependence of DNC activity on internal substrate. Proteoliposomes were preloaded internally with various substrates (concentration 10 mM). Trans-port was started by addition of […] [α-35 S]dATP and stopped after 2 min. The values are means 6 SD of at least three experiments. (c) Inhibition of the rate of [α-35 S]dATP uptake by external substrates. Proteoliposomes were preloaded internally with 10 mM ADP. Transport was started by adding 125 mM [α-35 S]dATP and stopped after 2 min. External substrates (concentration 0.5 mM) were added together with [α-35 S]dATP. The extents of inhibition (%) from a representative experiment are reported. The control value for uninhibited exchange was 0.45 mmol/min per gram of protein.
The recombinant protein in sarkosyl was reconstituted into liposomes in the presence of substrates (10). Both cardiolipin (1.14 mg/ml) and EDTA (1 mM) were added. Transport was measured at 25° C. with internal and external pHs at 6.8. It was started by adding [α-35S]dATP or [^14C]-ADP and terminated after 2 min by addition of 100 mM of p-chloromercuribenzene sulfonate (10). Entrapped radioactivity was counted (10). The initial transport rate was calculated from the radioactivity taken up by proteoliposomes within 2 min (in the initial linear range). Other transport activities were assayed similarly (10). The amount of DNC incorporated into liposomes was measured as described (11) and varied between 15 and 20% of the protein added to the reconstitution mixture.

In experiment [2] the target is T1, human DNC (mitochondrial deoxynucleotide carrier). In words: Dependence of DNC activity ([α-35S]dATP uptake) on internal substrate. The note with it: internal substrate 10 mM; 2 min. On the procedure: as §1, with “Transport was started by adding 125 mM [α-35 S]dATP and stopped after 2 min.” left out, “reported.” for “reported. The control value for uninhibited exchange was 0.45 mmol/min per gram of protein.”
(§2) The recombinant protein in sarkosyl was reconstituted into liposomes in the presence of substrates (10). […] Transport was measured at 25° C. with internal and external pHs at 6.8. It was started by adding [α-35S]dATP or [^14C]-ADP and terminated after 2 min by addition of 100 mM of p-chloromercuribenzene sulfonate (10). Entrapped radioactivity was counted (10). The initial transport rate was calculated from the radioactivity taken up by proteoliposomes within 2 min (in the initial linear range). Other transport activities were assayed similarly (10).

Experiment [3] shares this target. Put plainly: Homo-exchange of other carrier substrates in DNC proteoliposomes. The following applies: internal concentration 10 mM; external concentration 1 mM. On the procedure: as §2
The target is the same in experiment [4]. In words: Inhibition of [α-35S]dATP uptake (dATP/ADP exchange) by external substrates and carrier inhibitors. The following applies: external substrates 0.5 mM; internal 10 mM ADP; 125 mM [α-35 S]dATP; 2 min. The method, then: as §1, with “reported.” for “reported. The control value for uninhibited exchange was 0.45 mmol/min per gram of protein.”
The recombinant protein in sarkosyl was reconstituted into liposomes in the presence of substrates (10). Both cardiolipin (1.14 mg/ml) and EDTA (1 mM) were added. Transport was measured at 25° C. with internal and external pHs at 6.8. It was started by adding [α-35S]dATP or [^14C]-ADP and terminated after 2 min by addition of 100 mM of p-chloromercuribenzene sulfonate (10). Entrapped radioactivity was counted (10). The initial transport rate was calculated from the radioactivity taken up by proteoliposomes within 2 min (in the initial linear range). Other transport activities were assayed similarly (10).

On to `Nc1ncnc2c1ncn2[C@@H]1O[C@H](COP(=O)(O)OP(=O)(O)O)[C@@H](O)[C@H]1O` [ADP], for which the Km in experiment [1] is 42.6 ± 4.7 µM. Also, in experiment [2], the “rate of [α-35 S]dATP uptake into proteoliposomes with internal substrate” value (from here on “rate … with internal substrate”) is given as “highest rates”. For the compound `O=C(O)CCC(=O)C(=O)O` [oxoglutarate], the “homo-exchange catalysed by reconstituted DNC” value (“homo-exchange catalysed” for short) in experiment [3] is given as “did not catalyse”. Besides, in experiment [2], the “rate … with internal substrate” value was “virtually no activity”. Turning to `O=C(O)/C=C/C(=O)O` [fumarate], the “homo-exchange catalysed” value in experiment [3] is “did not catalyse”. Turning to `Nc1ncnc2c1ncn2[C@H]1C[C@H](O)[C@@H](COP(=O)(O)OP(=O)(O)OP(=O)(O)O)O1` [dATP], the Km in experiment [1] was 106 ± 15 µM. Besides, in experiment [1] (reconstituted human DNC, 25° C., pH 6.8), the “rate constant of exchange of [α-35 S]dATP for dADP or ADP (first-order kinetics)” value was found to be 0.02 min⁻¹. For the compound `NC(=O)CC[C@H](N)C(=O)O` [glutamine], in experiment [3], the “homo-exchange catalysed” value is reported as “did not catalyse”. With `NCCC[C@H](N)C(=O)O` [ornithine], the “homo-exchange catalysed” value in experiment [3] is on record as “did not catalyse”. Turning to `Nc1nc2c(ncn2[C@@H]2O[C@H](CO)[C@@H](O)[C@H]2O)c(=O)[nH]1` [guanosine], the “effect of external substrate on [α-35 S]dATP/ADP exchange” value in experiment [4] is reported as “no effect”. The “rate … with internal substrate” value in experiment [2] is listed as “virtually no activity”. Consider `O=C(O)CC(O)C(=O)O` (centres unmarked) [malate], for which the “homo-exchange catalysed” value in experiment [3] is on record as “did not catalyse”. In the case of `C[N+](C)(C)CC(O)CC(=O)[O-]` (centres unmarked) [carnitine], the “homo-exchange catalysed” value in experiment [3] is “did not catalyse”. Besides, in experiment [2], the “rate … with internal substrate” value is on record as “virtually no activity”.

In the case of `N[C@@H](CCC(=O)O)C(=O)O` [glutamate], in experiment [3], the “homo-exchange catalysed” value was “did not catalyse”. With `Nc1ncnc2c1ncn2[C@H]1C[C@H](O)[C@@H](CO)O1` [deoxyadenosine], the “effect of external substrate on [α-35 S]dATP/ADP exchange” value in experiment [4] is listed as “no effect”. In experiment [2], the “rate … with internal substrate” value is on record as “virtually no activity”.

The term Km denotes the concentration of substrate that gives half-maximal velocity.
